Series [1] deals with Platelet aggregation (collagen). In words: Platelet aggregation inhibitory activity, ex vivo after oral administration to guinea pigs, collagen as aggregating agent. The note with it: Cavia porcellus, read-out: Platelet aggregation inhibitory activity Collagen ED50. It is filed as in vivo, Hartley strain male guinea pigs. Here is the method:
(§1) Hartley strain male guinea pigs (weighing 300-350 g, one group: three animals) were fasted overnight, and to the animals were orally administered a solution or suspension of the test compounds in corn oil-10% arabic gum. […] The citrated blood thus obtained was centrifuged at 1,700 rpm for 10 minutes, and a platelet-rich plasma (PRP) was obtained from the supernatant. After isolating PRP, the remaining blood was further centrifuged at 3,000 rpm for 10 minutes, and a platelet-poor plasma (PPP) was obtained from the supernatant.
(§2) The PRP (450 μl) thus obtained was incubated at 37° C. for 3 minutes, and thereto was added 1.0 mM sodium arachidonate (50 μl) as an aggregating agent, and then the platelet aggregation thereof was measured with Platelet Aggregation Profiler® (Model PAP-3, manufactured by Bio Data Corp.) while using the PPP obtained above as a blank. As a control, as to animals to which no test compound was administered, the platelet aggregation rate was measured likewise.
(§3) The platelet aggregation inhibitory rate was calculated by the following equation. [formula]
Moreover, the above method was repeated except that 100 μg/ml collagen suspension (50 μl) was used as an aggregating agent instead of sodium arachidonate.

The nature of series [2]: in vivo. The note with it: mouse, oral, ddy male mice, deaths counted at 10 days, Weil method, read-out: Acute toxicity LD50. An excerpt:
ddy male mice (weighing 18-23 g, one group: 5 animals) were fasted overnight, and thereto was orally administered a suspension of the test compounds in 1% arabic gum solution.

Series [3] has as its system Platelet aggregation (arachidonate). As to the kind of experiment: Platelet aggregation inhibitory activity, ex vivo after oral administration to guinea pigs, sodium arachidonate as aggregating agent. It is filed as in vivo, Hartley strain male guinea pigs. The note with it: Cavia porcellus, read-out: Platelet aggregation inhibitory activity Arachidonate ED50. Here is the method: as §1, §2, §3

Setting [4] is: oral, guinea pig, blood collected after 3 hours, 100 μg/ml collagen suspension (50 μl), 50% inhibitory rate.
Setting [5] is: oral, guinea pig, blood collected after 3 hours, 1.0 mM sodium arachidonate (50 μl), 50% inhibitory rate.

Structures can show the parent of a compound that is named as a salt. Where two headings read alike, the source gives them in different places. Bounds are passed on as bounds.

Usually ED50 stands for the dose that gives a 50% effect, or the effect in half of the subjects. By LD50 is commonly meant the dose expected to kill half of the subjects tested. Take `CC(=O)Oc1ccccc1C(=O)O` [Aspirin, reference compound]: the median effective dose (ED50) was determined as 58.9 mg/kg in series [1] (po, 3 h) and 38.2 mg/kg in series [3] (po, 3 h). In series [2], the LD50 at 240 h was determined as 1060 mg/kg.
In the case of `COc1ccc(-c2nc(C(F)(F)F)sc2-c2ccc(OC)cc2)cc1` [Compd. A, 4,5-bis(4-methoxyphenyl)-2-trifluoromethylthiazole, reference compound], the values for the ED50 in series [1] (setting [4]) and in series [3] (setting [5]) were 1.29 mg/kg and 0.54 mg/kg, respectively. Besides, in series [2], the median lethal dose (LD50) at 240 h is more than 3000 mg/kg.
For `COc1ccc(-c2nc(-c3ccc(F)cc3)sc2-c2ccc(OC)cc2)cc1` [Compd. B, 4,5-bis(4-methoxyphenyl)-2-(4-fluorophenyl)thiazole, reference compound] the same measures were 1.2 mg/kg, 1.24 mg/kg and more than 3000 mg/kg.
In the same order, the values of `COc1ccc(-c2nc(-c3cccn3C)[nH]c2-c2ccc(OC)cc2)cc1` [Compd. C, 4,5-bis(4-methoxyphenyl)-2-(1-methylpyrrol-2-yl)imidazole, reference compound] are 2.51 mg/kg, 1.21 mg/kg and more than 3000 mg/kg.
In the same order, the values of `CCn1cccc1-c1nc(-c2ccc(OC)cc2)c(-c2ccc(OC)cc2)s1` [Ex. 1, 4,5-Bis(4-methoxyphenyl)-2-(1-ethylpyrrol-2-yl)-thiazole] are 0.91 mg/kg, 0.47 mg/kg and more than 3000 mg/kg.
As to `COc1ccc(-c2nc(-c3cccn3C(C)C)sc2-c2ccc(OC)cc2)cc1` [Ex. 2, 4,5-Bis(4-methoxyphenyl)-2-(1-isopropylpyrrol-2-yl)thiazole], the ED50 in series [1] (setting [4]) came out at 0.63 mg/kg; in series [3] (setting [5]), 0.29 mg/kg. In addition, the LD50 at 240 h in series [2] was more than 3000 mg/kg.
Consider `CCCn1cccc1-c1nc(-c2ccc(OC)cc2)c(-c2ccc(OC)cc2)s1` [Ex. 3, 4,5-Bis(4-methoxyphenyl)-2-(1-n-propylpyrrol-2-yl)thiazole], for which the ED50 in series [1] (setting [4]) turned out to be 0.52 mg/kg; in series [3] (setting [5]), 0.32 mg/kg. Moreover, the LD50 at 240 h in series [2] is more than 3000 mg/kg.
Consider `COc1ccc(-c2nc(-c3cccn3CC(C)C)sc2-c2ccc(OC)cc2)cc1` [Ex. 4, 4,5-Bis(4-methoxyphenyl)-2-(1-isobutylpyrrol-2-yl)thiazole], for which the ED50 was determined as 0.78 mg/kg in series [1] (setting [4]) and 0.41 mg/kg in series [3] (setting [5]). Also, in series [2], the LD50 at 240 h is more than 3000 mg/kg.
For `C=CCn1cccc1-c1nc(-c2ccc(OC)cc2)c(-c2ccc(OC)cc2)s1` [Ex. 5, 4,5-Bis(4-methoxyphenyl)-2-(1-allylpyrrol-2-yl)-thiazole] the same measures were 0.55 mg/kg, 0.4 mg/kg and more than 3000 mg/kg.
`C#CCn1cccc1-c1nc(-c2ccc(OC)cc2)c(-c2ccc(OC)cc2)s1` [Ex. 6, 4,5-Bis(4-methoxyphenyl)-2-(1-propargylpyrrol-2-yl)thiazole]: the median effective dose (ED50) stood at 0.92 mg/kg in series [1] (setting [4]) and 0.22 mg/kg in series [3] (setting [5]). In series [2], the LD50 at 240 h was more than 3000 mg/kg.
Turning to `COc1ccc(-c2nc(-c3cccn3CC(F)(F)F)sc2-c2ccc(OC)cc2)cc1` [Ex. 7, 4,5-Bis(4-methoxyphenyl)-2-[1-(2,2,2-trifluoroethyl)pyrrol-2-yl]thiazole], the results for the ED50 in series [1] (setting [4]) and in series [3] (setting [5]) were 0.51 mg/kg and 0.47 mg/kg, respectively. Also, the LD50 at 240 h in series [2] was more than 3000 mg/kg.
In the same order, the values of `COC(=O)Cn1cccc1-c1nc(-c2ccc(OC)cc2)c(-c2ccc(OC)cc2)s1` [Ex. 13, methyl 2-[4,5-bis(4-methoxyphenyl)thiazol-2-yl]pyrrole-1-acetate] are 0.89 mg/kg, 0.26 mg/kg and more than 3000 mg/kg.
In the same order, the values of `CCOC(=O)Cn1cccc1-c1nc(-c2ccc(OC)cc2)c(-c2ccc(OC)cc2)s1` [Ex. 14, ethyl 2-[4,5-bis(4-methoxyphenyl)thiazol-2-yl]pyrrole-1-acetate] are 0.19 mg/kg, 0.088 mg/kg and more than 3000 mg/kg.
Regarding `CCCOC(=O)Cn1cccc1-c1nc(-c2ccc(OC)cc2)c(-c2ccc(OC)cc2)s1` [Ex. 15, n-Propyl 2-[4,5-bis(4-methoxyphenyl)thiazol-2-yl]-pyrrole-1-acetate], the ED50 in series [1] (setting [4]) was 0.11 mg/kg; in series [3] (setting [5]) it was 0.072 mg/kg. In addition, in series [2], the LD50 at 240 h is more than 3000 mg/kg.
In the same order, the values of `COc1ccc(-c2nc(-c3cccn3CC(=O)OC(C)C)sc2-c2ccc(OC)cc2)cc1` [Ex. 16, isopropyl 2-[4,5-bis(4-methoxyphenyl)thiazol-2-yl]pyrrole-1-acetate] are 0.11 mg/kg, 0.061 mg/kg and more than 3000 mg/kg.
For `CCCCOC(=O)Cn1cccc1-c1nc(-c2ccc(OC)cc2)c(-c2ccc(OC)cc2)s1` [Ex. 17, n-Butyl 2-[4,5-bis(4-methoxyphenyl)thiazol-2-yl]-pyrrole-1-acetate] the same measures were 0.19 mg/kg, 0.15 mg/kg and more than 3000 mg/kg.
In the same order, the values of `COc1ccc(-c2nc(-c3cccn3CC(=O)OCC(C)C)sc2-c2ccc(OC)cc2)cc1` [Ex. 18, Isobutyl 2-[4,5-bis(4-methoxyphenyl)thiazol-2-yl]-pyrrole-1-acetate] are 0.12 mg/kg, 0.072 mg/kg and more than 3000 mg/kg.
Consider `CCC(C)OC(=O)Cn1cccc1-c1nc(-c2ccc(OC)cc2)c(-c2ccc(OC)cc2)s1` (centres unmarked) [Ex. 19, sec-Butyl 2-[4,5-bis(4-methoxyphenyl)thiazol-2-yl]pyrrole-1-acetate], for which the ED50 in series [1] (setting [4]) is 0.11 mg/kg; in series [3] (setting [5]), 0.12 mg/kg. Also, the LD50 at 240 h in series [2] is more than 3000 mg/kg.
Consider `CCCCCOC(=O)Cn1cccc1-c1nc(-c2ccc(OC)cc2)c(-c2ccc(OC)cc2)s1` [Ex. 20, n-pentyl 2-[4,5-bis(4-methoxyphenyl)thiazol-2-yl]pyrrole-1-acetate], for which the ED50 in series [1] (setting [4]) came to 0.49 mg/kg; in series [3] (setting [5]) it was 0.28 mg/kg. Besides, the LD50 at 240 h in series [2] was more than 3000 mg/kg.
In the same order, the values of `COc1ccc(-c2nc(-c3cccn3CC(=O)OCCC(C)C)sc2-c2ccc(OC)cc2)cc1` [Ex. 21, Isopentyl 2-[4,5-bis(4-methoxyphenyl)thiazol-2-yl]pyrrole-1-acetate] are 0.22 mg/kg, 0.12 mg/kg and more than 3000 mg/kg.
In the same order, the values of `COc1ccc(-c2nc(-c3cccn3CC(=O)OCC(C)(C)C)sc2-c2ccc(OC)cc2)cc1` [Ex. 22, Neopentyl 2-[4,5-bis(4-methoxyphenyl)thiazol-2-yl]pyrrole-1-acetate] are 0.4 mg/kg, 0.11 mg/kg and more than 3000 mg/kg.
In the same order, the values of `CCC(C)COC(=O)Cn1cccc1-c1nc(-c2ccc(OC)cc2)c(-c2ccc(OC)cc2)s1` (centres unmarked) [Ex. 23, 2-methyl-1-butyl 2-[4,5-bis(4-methoxyphenyl)thiazol-2-yl]pyrrole-1-acetate] are 0.14 mg/kg, 0.073 mg/kg and more than 3000 mg/kg.
Consider `CCCC(C)OC(=O)Cn1cccc1-c1nc(-c2ccc(OC)cc2)c(-c2ccc(OC)cc2)s1` (centres unmarked) [Ex. 24, 2-pentyl 2-[4,5-bis(4-methoxyphenyl)thiazol-2-yl]pyrrole-1-acetate], for which the ED50 in series [1] (setting [4]) is 0.22 mg/kg; in series [3] (setting [5]) it was 0.12 mg/kg. Moreover, the LD50 at 240 h in series [2] is more than 3000 mg/kg.
For `CCC(CC)OC(=O)Cn1cccc1-c1nc(-c2ccc(OC)cc2)c(-c2ccc(OC)cc2)s1` [Ex. 25, 3-pentyl 2-[4,5-bis(4-methoxyphenyl)thiazol-2-yl]pyrrole-1-acetate] the same measures were 0.34 mg/kg, 0.12 mg/kg and more than 3000 mg/kg.
For `COc1ccc(-c2nc(-c3cccn3CC(=O)OC(C)C(C)C)sc2-c2ccc(OC)cc2)cc1` (centres unmarked) [Ex. 26, 3-methyl-2-butyl 2-[4,5-bis(4-methoxyphenyl)thiazol-2-yl]pyrrole-1-acetate] the same measures were 0.34 mg/kg, 0.26 mg/kg and more than 3000 mg/kg.
In the same order, the values of `CCCCCCOC(=O)Cn1cccc1-c1nc(-c2ccc(OC)cc2)c(-c2ccc(OC)cc2)s1` [Ex. 27, n-hexyl 2-[4,5-bis(4-methoxyphenyl)thiazol-2-yl]pyrrole-1-acetate] are 0.22 mg/kg, 0.21 mg/kg and more than 3000 mg/kg.
For `CCCCCCCCOC(=O)Cn1cccc1-c1nc(-c2ccc(OC)cc2)c(-c2ccc(OC)cc2)s1` [Ex. 28, n-octyl 2-[4,5-bis(4-methoxyphenyl)thiazol-2-yl]pyrrole-1-acetate], the ED50 is 0.44 mg/kg in series [1] (setting [4]) and 0.39 mg/kg in series [3] (setting [5]). The LD50 at 240 h in series [2] was more than 3000 mg/kg.
For `C=CCOC(=O)Cn1cccc1-c1nc(-c2ccc(OC)cc2)c(-c2ccc(OC)cc2)s1` [Ex. 29, allyl 2-[4,5-bis(4-methoxyphenyl)thiazol-2-yl]pyrrole-1-acetate] the same measures were 0.11 mg/kg, 0.047 mg/kg and more than 3000 mg/kg.
Consider `Clc1ccccc1CN1CCc2sccc2C1` [Ticlopidine.HCl, Ticlopidine hydrochloride, reference compound], for which the results for the ED50 in series [1] (setting [4]) and in series [3] (setting [5]) were 300 mg/kg and more than 300 mg/kg, respectively.

The values are drawn from patent publication US4659726A, “Novel 4,5-Bis (4-methoxyphenyl)-2-(pyrrol-2-yl) thiazoles and pharmaceutical composition containing the same” (Kanebo, Ltd., priority 1984, dated 1987).
